Laboratory results taken from PubChem BioAssay (NCI).
Several values for one entry are separate records, joined by “and”; a condition that tells them apart may be missing. Equal values may be shown once.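 48-hour exposure; five concentrations; linearly interpolated endpoints. At the GI50, growth is halved. TGI marks complete inhibition of growth.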

Experiments:
Test in all cases: inhibition of tumour cell growth, NCI panel, 48 h
[1] = test system: A549 NSCLC
[2] = test system: HCC-2998 colon
[3] = test system: HS 578T breast
[4] = test system: K-562 leukemia
[5] = test system: MALME-3M melanoma
[6] = test system: MOLT-4 leukemia
[7] = test system: NCI-H226 lung
[8] = test system: SF-268 CNS
[9] = test system: SR leukemia
[10] = test system: HL-60(TB) leukemia

| SMILES | GI50 [1] | TGI [1] | GI50 [2] | TGI [2] | GI50 [3] | TGI [3] | GI50 [4] | TGI [4] | GI50 [5] | TGI [5] | GI50 [6] | TGI [6] | GI50 [7] | TGI [7] | GI50 [8] | TGI [8] | GI50 [9] | TGI [9] | TGI [10] | GI50 [10] |
| --- | --- | --- | --- | --- | --- | --- | --- | --- | --- | --- | --- | --- | --- | --- | --- | --- | --- | --- | --- | --- |
| OCCCCC#Cc1ccccc1C#Cc1cnccn1 | 38.3 µM | > 100 µM | 33 µM | > 100 µM | 24.9 µM | 85.1 µM | 29.5 µM | > 100 µM | 47.9 µM | > 100 µM | 29.8 µM | > 100 µM | 40 µM | > 100 µM | 32.4 µM | > 100 µM | 28.1 µM | > 100 µM | – | – |
| CCN1CC2(C)CC[C@@H](OC)C34[C@@H]2[C@H](OC(C)=O)C2(OCO[C@@]25C[C@H](OC)C2C[C@]3(O)[C@@H]5[C@H]2O)[C@H]14 | – | > 100 µM | – | > 100 µM | – | – | – | – | – | > 100 µM | – | – | – | > 100 µM | – | > 100 µM | – | > 100 µM | > 100 µM | – |
| COC(=O)C1=C(O)C(C(=O)OC)[C@@]2(O)[C@@H](C(=O)OC)C(c3ccc(OC(=O)C(CC(C)C)NC(C)=O)cc3)C[C@@H]1[C@@H]2C(=O)OC (stereo partly specified) | 38.3 µM | > 100 µM | 19 µM | 52 µM | 58.3 µM | > 100 µM | 95 µM | > 100 µM | – | – | 48.3 µM | 97.2 µM | 43 µM | > 100 µM | 35.7 µM | > 100 µM | – | – | > 100 µM | 43.9 µM |
| COc1ccc(N=C2NN=C(c3c[nH]c4ccccc34)CS2)cc1OC | 9.92 µM | > 53.1 µM | 9.57 µM | > 48.3 µM | 5.38 µM | > 100 µM | 7.67 µM | > 100 µM | 15 µM | > 69.1 µM | 3.29 µM | > 100 µM | 15.9 µM | > 100 µM | 8.65 µM | > 100 µM | 0.181 µM | > 100 µM | – | – |
| COc1ccc(-n2nc(C)c3c2N(C)C2(C)C[C@@H]4C3(C)[C@@H]3CC4(C2)N(C)c2c(c(C)nn2-c2ccc(OC)cc2)[C@H]3C)cc1 (stereo partly specified) | 3.29 µM | > 100 µM | 9.65 µM | > 100 µM | 4.27 µM | 98 µM | – | – | 6.34 µM | > 100 µM | – | – | 5.34 µM | > 100 µM | 4.08 µM | 70.2 µM | – | – | – | – |
| O=C1c2ccccc2C(=O)c2c1ccc1c3ccccc3n(Cc3ccccc3)c21 | – | > 100 µM | – | – | – | – | – | > 100 µM | – | > 100 µM | – | > 100 µM | – | > 100 µM | – | > 100 µM | – | > 100 µM | > 100 µM | – |
| CCC1NCC(=O)c2c1[nH]c1ccccc21 (stereo unspecified) | – | > 100 µM | – | > 100 µM | – | – | – | > 100 µM | – | > 100 µM | – | > 100 µM | – | > 100 µM | – | > 100 µM | – | > 100 µM | > 100 µM | – |
| CC(=O)Nc1ccc(C(=O)N2N=C(C)/C(=C/c3cccc(O)c3)C2=O)cc1 | – | > 100 µM | – | > 100 µM | – | – | – | > 100 µM | – | > 100 µM | – | > 100 µM | – | > 100 µM | – | > 100 µM | – | – | – | – |
| COC(=O)C1CCC(=NC2c3ccccc3-c3ccccc32)N1 (stereo unspecified) | – | > 100 µM | – | > 100 µM | – | – | – | > 100 µM | – | > 100 µM | – | > 100 µM | – | > 100 µM | – | > 100 µM | – | – | > 100 µM | – |
| COC(=O)C(=O)C(C(=O)C(=O)Nc1ccccc1C(N)=O)c1nc2ccc(C(=O)c3ccccc3)cc2[nH]c1=O (stereo unspecified) | – | > 100 µM | – | > 100 µM | – | – | – | > 100 µM | – | > 100 µM | – | > 100 µM | – | > 100 µM | – | > 100 µM | – | > 100 µM | – | – |
| O=C(Cc1nc2ccc([N+](=O)[O-])cc2[nH]c1=O)C(=O)Nc1cc(Cl)c(Cl)cc1Cl | – | > 100 µM | – | > 100 µM | – | > 100 µM | – | – | – | > 100 µM | – | > 100 µM | – | > 100 µM | – | > 100 µM | – | > 100 µM | – | – |
| C/C(=N\NC(=S)N1CCC(C2CCN(C(=S)N/N=C(\C)c3ccccn3)CC2)CC1)c1ccccn1 | – | > 100 µM | – | > 100 µM | – | – | – | > 100 µM | – | > 100 µM | – | – | – | > 100 µM | – | > 100 µM | – | – | > 100 µM | – |
| Clc1ccccc1C1=NN(c2ccccc2)C2c3cc(Br)ccc3OCC12 (stereo unspecified) | – | > 100 µM | – | > 100 µM | – | – | – | > 100 µM | – | > 100 µM | – | > 100 µM | – | – | – | > 100 µM | – | – | > 100 µM | – |
| CCCCCCCCC(=O)NCCCNCCCNC(=O)CCCCCCCC | – | 29 µM | – | 6.67 µM | – | – | – | 4.55 µM | – | 26.6 µM | – | 10.4 µM | – | 35.1 µM | – | 26 µM | – | 5.81 µM | 3.77 µM | – |
| COC(=O)Nc1nc2ccc(Sc3ccc(NC(=O)Nc4cc(C(F)(F)F)ccc4F)cc3)cc2[nH]1 | 3.01 µM | 7.06 µM | 3.96 µM | 13.1 µM | 1.35 µM | 7.24 µM | 0.739 µM | 5.89 µM | 2.99 µM | 23.6 µM | 3.26 µM | 17 µM | 3.81 µM | 20.2 µM | 3.89 µM | 9.6 µM | – | – | 12.3 µM | 1.46 µM |
| O=C1/C(=C/c2ccccc2)CN(C(=O)Oc2ccc([N+](=O)[O-])cc2)C/C1=C\c1ccccc1 | – | – | 1.33 µM | 5.99 µM and 3.3 µM | – | – | 1.79 µM | 5.33 µM | – | – | 1.21 µM | 4.83 µM and 4.45 µM | – | – | 3.11 µM | – | 0.261 µM | 5.54 µM and 0.775 µM | 3.97 µM and 5.9 µM | 1.73 µM |
| O=C1c2cccc3cccc(c23)C(=O)N1CCCN1CCN(CCCN2C(=O)c3cccc4cccc(c34)C2=O)CC1 | – | > 100 µM | – | > 100 µM | – | – | – | > 100 µM | – | > 100 µM | – | > 100 µM | – | > 100 µM | – | – | – | – | > 100 µM | – |
| Cc1c(-c2coc(-c3ccc(Cl)cc3)n2)c(=O)n(-c2ccccc2)n1C | – | > 100 µM | – | > 100 µM | – | – | – | – | – | > 100 µM | – | > 100 µM | – | > 100 µM | – | > 100 µM | – | > 100 µM | > 100 µM | – |
| COc1ccccc1NC(=O)C(=O)C1C(=O)Nc2ccccc2S1=O (stereo unspecified) | – | > 100 µM | – | > 100 µM | – | – | – | > 100 µM | – | > 100 µM | – | > 100 µM | – | > 100 µM | – | > 100 µM | – | > 100 µM | > 100 µM | – |
| COc1cc(C2c3cc4c(cc3[C@@H](Nc3cccc(O)c3)C3COC(=O)[C@H]23)OCO4)cc(OC)c1O (stereo partly specified) | 0.579 µM | 7.03 µM | – | 8.81 µM | – | – | 0.802 µM | 22.2 µM | – | 11.2 µM | 0.1 µM | 0.911 µM | 0.423 µM | 0.902 µM and 4.04 µM | 0.942 µM | 14.1 µM | 0.0674 µM | 0.816 µM and 4.6 µM | 0.802 µM and 2.73 µM | 0.23 µM |
